Test results from patent publication US20140107109A1, “AMINO-DIHYDROTHIAZINE AND AMINO-DIOXIDO DIHYDROTHIAZINE COMPOUNDS AS BETA-SECRETASE ANTAGONISTS AND METHODS OF USE” (Amgen Inc., priority 2012, published 2014).
Where two headings read alike, the source gives them in different places.

Legend:
Cathepsin D (Cat D) = target: T1, Cathepsin D (Cat D) (Homo sapiens, UniProt P07339); assay: In vitro enzymatic Cathepsin D (Cat D) FRET assay; assay type: biochemical
T1 construct: Recombinant Cat D was expressed in CHO cells; made in house; host or cells: CHO cells
Method in brief: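 Recombinant Cat D expressed in CHO cells, used at 9 nM and pre-incubated one hour with serially diluted inhibitor in DMSO. Peptide substrate carries a fluorophore and quencher flanking the cleavage site; reaction stopped with Tris buffer raising pH to neutrality, then fluorescence read.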

[1] = target: Beta Secretase enzyme (BACE1) (Homo sapiens, UniProt P56817); assay: In vitro enzymatic BACE FRET assay; assay type: biochemical; details: read-out: BACE1 FRET assay IC50
Method in brief: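 BACE1 cleavage of a 50 nM fluorophore/quencher peptide FRET substrate ran for one hour in 0.05 M acetate pH 4.2, 10% DMSO, 100 uM genapol. Tris buffer raised pH to neutrality to stop the reaction before fluorescence was read (excitation 488 nm, […]).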

[2] = tested on: Aβ40 in conditioned medium of cells stably expressing Amyloid Precursor Protein (APP); assay: In vitro BACE cell-based assay (HEK cell assay), Aβ40 sandwich ELISA; details: Homo sapiens, HEK293
Method in brief: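 APP-stably expressing cells (40K/well, grown 24 h in DMEM/10% FBS) were treated 24 h with compounds in 10-point dose response starting at 100 μM or 10 μM, 0.1% DMSO final. Secreted Aβ40 was measured by sandwich ELISA (pAb40 capture, biotinylated 6E10 detection, europium time-resolved fluorescence); IC50 from percent inhibition.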

Sequence of Beta Secretase enzyme (BACE1) (P56817 46-501): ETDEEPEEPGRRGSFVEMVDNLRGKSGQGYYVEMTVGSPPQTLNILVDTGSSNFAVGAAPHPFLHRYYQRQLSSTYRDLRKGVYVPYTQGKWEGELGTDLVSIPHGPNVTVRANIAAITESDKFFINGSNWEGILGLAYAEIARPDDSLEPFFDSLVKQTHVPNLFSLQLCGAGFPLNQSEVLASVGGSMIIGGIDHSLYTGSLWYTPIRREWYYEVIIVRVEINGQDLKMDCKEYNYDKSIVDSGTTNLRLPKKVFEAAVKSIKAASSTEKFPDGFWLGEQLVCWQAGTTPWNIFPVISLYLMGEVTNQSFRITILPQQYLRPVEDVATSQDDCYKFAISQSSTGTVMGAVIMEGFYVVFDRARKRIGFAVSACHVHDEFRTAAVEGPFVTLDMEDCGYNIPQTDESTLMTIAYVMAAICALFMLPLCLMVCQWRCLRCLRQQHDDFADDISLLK
T1 sequence (P07339 65-412, species assumed): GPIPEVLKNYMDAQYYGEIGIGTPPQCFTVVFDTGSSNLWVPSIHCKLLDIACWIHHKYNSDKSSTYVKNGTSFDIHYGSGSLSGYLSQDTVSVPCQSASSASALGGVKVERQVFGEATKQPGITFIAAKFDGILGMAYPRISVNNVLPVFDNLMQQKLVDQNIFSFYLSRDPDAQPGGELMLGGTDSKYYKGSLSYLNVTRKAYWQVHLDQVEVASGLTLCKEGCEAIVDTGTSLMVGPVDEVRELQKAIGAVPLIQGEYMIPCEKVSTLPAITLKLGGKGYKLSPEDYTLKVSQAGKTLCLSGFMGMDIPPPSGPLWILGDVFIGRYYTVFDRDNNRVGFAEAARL

Row | Structure (SMILES) | IC50 (Cathepsin D (Cat D); read-out: CatD IC50) | IC50 ([1]; average IC50, enzyme assay) | IC50 ([2]; average IC50, cell assay) | IC50 ([1]; average IC50) | IC50 ([2]; average IC50, HEK cells) | IC50 (Cathepsin D (Cat D)) | IC50 ([2]; average IC50, HEK cell assay)
1 | C[C@]1(F)C(N)=N[C@](C)(c2cc(Nc3nccc4cc(Cl)cnc34)ccc2F)CS1(=O)=O [Example 174, (3R,6R)-5-Amino-3-(5-((3-chloro-1,7-naphthyridin-8-yl)amino)-2-fluorophenyl)-6-fluoro-3,6-dimethyl-3,6-dihydro-2H-1,4-thiazine 1,1-dioxide] | 101000 nM | 0.33 nM | 119 nM |  |  |  | 
2 | C[C@]1(F)C(N)=N[C@](C)(c2cc(Nc3ncnc4cc(Cl)cnc34)ccc2F)CS1(=O)=O [Example 175, (3R,6R)-5-Amino-3-((5-(7-chloropyrido[3,2-d]pyrimidin-4-yl)amino)-2-fluorophenyl)-6-fluoro-3,6-dimethyl-3,6-dihydro-2H-1,4-thiazine 1,1-dioxide] | 75800 nM | 3.88 nM | 103 nM |  |  |  | 
3 | COc1cnc(C(=O)Nc2ccc(F)c([C@]3(C)CS(=O)(=O)[C@](C)(F)C(N)=N3)c2)cn1 [Example 176] | 650000 nM |  |  | 2.8 nM | 254 nM |  | 
4 | COc1cnc2c(Nc3ccc(F)c([C@]4(C)CS(=O)(=O)[C@@](C)(F)C(N)=N4)c3)ncnc2c1 [Example 177, (3R,6R)-5-Amino-6-fluoro-3-(2-fluoro-5-((7-methoxypyrido[3,2-d]pyrimidin-4-yl)amino)phenyl)-3,6-dimethyl-3,6-dihydro-2H-1,4-thiazine 1,1-dioxide] | 175000 nM | 2.68 nM | 78.2 nM |  |  |  | 
5 | C[C@]1(F)C(N)=N[C@](C)(c2cc(Nc3ncc(F)c4cc(Cl)cnc34)ccc2F)CS1(=O)=O [Example 178, (3R,6R)-5-Amino-3-(5-((3-chloro-5-fluoro-1,7-naphthyridin-8-yl)amino)-2-fluorophenyl)-6-fluoro-3,6-dimethyl-3,6-dihydro-2H-1,4-thiazine 1,1-dioxide] | 32100 nM |  |  | 0.38 nM | 379 nM |  | 
6 | C[C@]1(F)C(N)=N[C@](C)(c2cc(Nc3ncc(F)c4cc(C#N)cnc34)ccc2F)CS1(=O)=O [Example 179, 8-((3-((3R,6R)-5-Amino-6-fluoro-3,6-dimethyl-1,1-dioxido-3,6-dihydro-2H-1,4-thiazin-3-yl)-4-fluorophenyl)amino)-5-fluoro-1,7-naphthyridine-3-carbonitrile] | > 44400 nM |  |  | 0.8 nM | 157 nM |  | 
7 | C[C@]1(F)C(N)=N[C@](C)(c2cc(Nc3ncnc4cc(C#N)cnc34)ccc2F)CS1(=O)=O [Example 180, 4-((3-((3R,6R)-5-Amino-6-fluoro-3,6-dimethyl-1,1-dioxido-3,6-dihydro-2H-1,4-thiazin-3-yl)-4-fluorophenyl)amino)pyrido[3,2-d]pyrimidine-7-carbonitrile] | 65500 nM | 1.1 nM | 89.4 nM |  |  |  | 
8 | Cc1nc(F)c([C@]2(C)CS(=O)(=O)C(C)(C)C(N)=N2)cc1Br [Example 184, (R)-5-Amino-3-(5-bromo-2-fluoro-6-methylpyridin-3-yl)-3,6,6-trimethyl-3,6-dihydro-2H-1,4-thiazine 1,1-dioxide] |  | 8110 nM | 3990 nM |  |  | 127000 nM | 
9 | Cc1cc(Cl)cnc1C(=O)Nc1cnc(F)c([C@]2(C)CS(=O)(=O)C3(CC3)C(N)=N2)c1 [Example 186, (R)—N-(5-(8-amino-6-methyl-4,4-dioxido-4-thia-7-azaspiro[2.5]oct-7-en-6-yl)-6-fluoropyridin-3-yl)-5-chloro-3-methylpicolinamide] | 65700 nM |  |  | 2.4 nM | 4.3 nM |  | 
10 | CC1(C)C(N)=N[C@](C)(c2cc(Br)ccc2F)C2(CC2)S1(=O)=O [Example 187] | > 400000 nM |  |  | 30700 nM | > 15600 nM |  | 
11 | CC1(C)C(N)=N[C@](C)(c2cc(Nc3ncc(Br)c4cc(Cl)cnc34)ccc2F)CS1(=O)=O [Example 188, (R)-5-amino-3-(5-((5-bromo-3-chloro-1,7-naphthyridin-8-yl)amino)-2-fluorophenyl)-3,6,6-trimethyl-3,6-dihydro-2H-1,4-thiazine 1,1-dioxide] | 213000 nM | 0.83 nM | 59.7 nM |  |  |  | 
12 | CC1(C)C(N)=N[C@](C)(c2cc(Nc3ncc(C#C[Si](C)(C)C)c4cc(Cl)cnc34)ccc2F)CS1(=O)=O [Example 189, (R)-5-amino-3-(5-((3-chloro-5-((trimethylsilyl)ethynyl)-1,7-naphthyridin-8-yl)amino)-2-fluorophenyl)-3,6,6-trimethyl-3,6-dihydro-2H-1,4-thiazine 1,1-dioxide] | > 4940 nM | 6.8 nM | 231 nM |  |  |  | 
13 | C#Cc1cnc(Nc2ccc(F)c([C@]3(C)CS(=O)(=O)C(C)(C)C(N)=N3)c2)c2ncc(Cl)cc12 [Example 190, (R)-5-amino-3-(5-((3-chloro-5-ethynyl-1,7-naphthyridin-8-yl)amino)-2-fluorophenyl)-3,6,6-trimethyl-3,6-dihydro-2H-1,4-thiazine 1,1-dioxide] | 63900 nM | 1.3 nM | 44.8 nM |  |  |  | 
14 | CC1(C)C(N)=N[C@](C)(c2cc(Nc3ncc(CO)c4cc(Cl)cnc34)ccc2F)CS1(=O)=O [Example 191, (R)-5-amino-3-(5-((3-chloro-5-(hydroxymethyl)-1,7-naphthyridin-8-yl)-amino)-2-fluorophenyl)-3,6,6-trimethyl-3,6-dihydro-2H-1,4-thiazine 1,1-dioxide] | 65000 nM | 4.47 nM | 8.9 nM |  |  |  | 
15 | CC1(C)C(N)=N[C@](C)(c2cc(Nc3ncc(Cl)c4cc(Cl)cnc34)ccc2F)CS1(=O)=O [Example 192, (R)-5-amino-3-(5-((3,5-dichloro-1,7-naphthyridin-8-yl)amino)-2-fluorophenyl)-3,6,6-trimethyl-3,6-dihydro-2H-1,4-thiazine 1,1-dioxide] | 32400 nM | 0.7 nM | 36.6 nM |  |  |  | 
16 | CC1(C)C(N)=N[C@](CF)(c2cc(NC(=O)c3ccc(Cl)cn3)ccc2F)CS1(=O)=O [Example 193, (S)—N-(3-(5-amino-3-(fluoromethyl)-6,6-dimethyl-1,1-dioxido-3,6-dihydro-2H-1,4-thiazin-3-yl)-4-fluorophenyl)-5-chloropicolinamide] | 228000 nM |  |  | 0.76 nM | 16.1 nM |  | 
17 | C=C(C)c1cc(Cl)cnc1C(=O)Nc1ccc(F)c([C@]2(C)CS(=O)(=O)C(C)(C)C(N)=N2)c1 [Example 194, (R)—N-(3-(5-amino-3,6,6-trimethyl-1,1-dioxido-3,6-dihydro-2H-1,4-thiazin-3-yl)-4-fluorophenyl)-5-chloro-3-(prop-1-en-2-yl)picolinamide] | 617000 nM | 5.18 nM |  |  |  |  | 3.42 nM
18 | C=Cc1cc(Cl)cnc1C(=O)Nc1ccc(F)c([C@]2(C)CS(=O)(=O)C(C)(C)C(N)=N2)c1 [Example 195, (R)—N-(3-(5-amino-3,6,6-trimethyl-1,1-dioxido-3,6-dihydro-2H-1,4-thiazin-3-yl)-4-fluorophenyl)-5-chloro-3-vinylpicolinamide] | 108000 nM | 0.59 nM |  |  |  |  | 3.9 nM
19 | CCc1cc(Cl)cnc1C(=O)Nc1ccc(F)c([C@]2(C)CS(=O)(=O)C(C)(C)C(N)=N2)c1 [Example 196, (R)—N-(3-(5-amino-3,6,6-trimethyl-1,1-dioxido-3,6-dihydro-2H-1,4-thiazin-3-yl)-4-fluorophenyl)-5-chloro-3-ethylpicolinamide] | 200000 nM | 1.81 nM |  |  |  |  | 5.4 nM
20 | CCc1cc(Cl)cnc1C(=O)Nc1ccc(F)c([C@]2(CF)CS(=O)(=O)C(C)(C)C(N)=N2)c1 [Example 197, (S)—N-(3-(5-amino-3-(fluoromethyl)-6,6-dimethyl-1,1-dioxido-3,6-dihydro-2H-1,4-thiazin-3-yl)-4-fluorophenyl)-5-chloro-3-ethylpicolinamide] | 416000 nM | 1.46 nM |  |  |  |  | 208 nM
21 | CC(C)c1cc(Cl)cnc1C(=O)Nc1ccc(F)c([C@]2(CF)CS(=O)(=O)C(C)(C)C(N)=N2)c1 [Example 198, (S)—N-(3-(5-amino-3-(fluoromethyl)-6,6-dimethyl-1,1-dioxido-3,6-dihydro-2H-1,4-thiazin-3-yl)-4-fluorophenyl)-5-chloro-3-isopropylpicolinamide 2,2,2-trifluoroacetate] | 850000 nM | 7.99 nM |  |  |  |  | 91.4 nM
22 | C[C@@]1(c2cc(NC(=O)c3ccc(Cl)cn3)ccc2F)CS(=O)(=O)C2(CC2)C(N)=N1 [Example 199, N-(3-((6R)-8-amino-6-methyl-4,4-dioxido-4-thia-7-azaspiro[2.5]oct-7-en-6-yl)-4-fluorophenyl)-5-chloro-2-pyridinecarboxamide] | 81000 nM |  |  | 1.9 nM | 1.1 nM |  | 
23 | C[C@]1(c2cc(NC(=O)c3ccc(Cl)cn3)ccc2F)N=C(N)C2(CC2)S(=O)(=O)[C@@H]1F [Example 200, N-(3-((5S,6R)-8-amino-5-fluoro-6-methyl-4,4-dioxido-4-thia-7-azaspiro[2.5]oct-7-en-6-yl)-4-fluorophenyl)-5-chloro-2-pyridinecarboxamide] | 55600 nM |  |  | 1.3 nM | 3.9 nM |  | 
